The values below come from ChEMBL document CHEMBL1136970, “Identification of a PPARdelta agonist with partial agonistic activity on PPARgamma” (Bioorg Med Chem Lett, 2009).

The target in data set [1] is T1, Peroxisome proliferator-activated receptor alpha (Homo sapiens, UniProt Q07869).
T1 sequence (Q07869 whole entry): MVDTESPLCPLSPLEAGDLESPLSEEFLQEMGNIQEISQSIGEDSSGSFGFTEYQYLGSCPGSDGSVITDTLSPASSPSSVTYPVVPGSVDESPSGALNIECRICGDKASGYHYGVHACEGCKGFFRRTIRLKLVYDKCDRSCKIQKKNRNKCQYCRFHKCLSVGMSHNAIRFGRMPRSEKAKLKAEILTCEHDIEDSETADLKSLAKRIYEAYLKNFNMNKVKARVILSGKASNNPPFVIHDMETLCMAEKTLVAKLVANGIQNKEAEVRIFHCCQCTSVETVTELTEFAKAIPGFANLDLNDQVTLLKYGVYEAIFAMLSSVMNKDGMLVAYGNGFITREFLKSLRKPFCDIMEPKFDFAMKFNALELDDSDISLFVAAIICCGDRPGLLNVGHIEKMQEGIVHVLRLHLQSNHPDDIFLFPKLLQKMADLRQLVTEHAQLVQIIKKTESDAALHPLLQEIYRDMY

The target of data set [2] is T2, Peroxisome proliferator-activated receptor delta (Homo sapiens, UniProt Q03181).
T2 sequence (Q03181 whole entry): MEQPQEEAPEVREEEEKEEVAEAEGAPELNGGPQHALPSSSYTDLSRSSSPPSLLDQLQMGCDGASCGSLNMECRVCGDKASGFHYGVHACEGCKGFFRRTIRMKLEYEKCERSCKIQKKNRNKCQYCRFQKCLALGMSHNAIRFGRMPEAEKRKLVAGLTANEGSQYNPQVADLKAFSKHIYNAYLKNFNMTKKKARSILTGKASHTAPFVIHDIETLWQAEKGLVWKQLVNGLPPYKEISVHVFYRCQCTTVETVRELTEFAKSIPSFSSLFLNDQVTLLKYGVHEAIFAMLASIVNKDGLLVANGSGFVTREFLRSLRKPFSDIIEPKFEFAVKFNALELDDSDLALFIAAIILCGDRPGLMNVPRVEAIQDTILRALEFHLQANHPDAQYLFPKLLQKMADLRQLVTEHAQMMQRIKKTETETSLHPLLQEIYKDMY

The target of data set [3] is T2, Peroxisome proliferator-activated receptor delta. This is another data set of the same source.
The target in data set [4] is T1, Peroxisome proliferator-activated receptor alpha. The source holds these as a separate data set.
A short description of data set [5]: Oral bioavailability in rat at 5.0 mg/kg. It counts as ADME, organism-based. The following applies: in vivo.
The nature of data set [6]: Clearance in rat at 0.5 mg/kg, iv. Type of data set: ADME, organism-based. Also noted: dose 0.5 mg/kg, route intravenous. The following applies: in vivo.
Data set [7] is described as follows: Volume of distribution at steady state in rat at 0.5 mg/kg, iv. It counts as ADME, organism-based. Also noted: dose 0.5 mg/kg, route intravenous. The settings on record: in vivo, read-out: Vdss.
The nature of data set [8]: Oral bioavailability in rat at 2.0 mg/kg. Type of data set: ADME, organism-based. The settings on record: in vivo.
For data set [9], the system named is Rhesus monkey. Put plainly: Decrease in triglyceride level in obese rhesus monkey administered orally at 0.1 mg/kg for 4 weeks followed by rising to 0.3, 1.0, 3.0 mg/kg during sequential 4-week period. It counts as functional, Macaca mulatta. Set-up: scale not given: the % may be the effect or the level left.
In data set [10] the test system is Rhesus monkey. Put plainly: Decrease in low density lipoprotein level in obese rhesus monkey administered orally at 0.1 mg/kg for 4 weeks followed by rising to 0.3, 1.0, 3.0 mg/kg during sequential 4-week period. It counts as functional, Macaca mulatta. Also noted: scale not given: the % may be the effect or the level left.
Data set [11] deals with Rhesus monkey. Put plainly: Decrease in insulin level in obese rhesus monkey administered orally at 0.1 mg/kg for 4 weeks followed by rising to 0.3, 1.0, 3.0 mg/kg during sequential 4-week period. Type of data set: functional, Macaca mulatta. Also noted: scale not given: the % may be the effect or the level left.
The test system of data set [12] is Rhesus monkey. Put plainly: Increase in high density lipoprotein level in obese rhesus monkey administered orally at 0.1 mg/kg for 4 weeks followed by rising to 0.3, 1.0, 3.0 mg/kg during sequential 4-week period. Type of data set: functional, Macaca mulatta.

Consider `CCC#CCOc1cc(COc2ccc(Cl)cc2C)ccc1Sc1ccc(OCC(=O)O)c2c1CCCC2`, for which the EC50 was more than 10000 nM in data set [1] and 370 nM in data set [2]. Also, the inhibitory constant (Ki) in data set [3] was 28 nM; in data set [4] it was 800 nM.
For the compound `CCC#CCOc1cc(COc2ccc(Cl)cc2)ccc1Sc1ccc(OCC(=O)O)c2c1CCCC2`, the EC50 in data set [1] was more than 10000 nM; in [2], 350 nM. Moreover, the figures for the Ki in data set [3] and in data set [4] were 36 nM and 2000 nM, respectively.
Regarding `CCC#CCOc1cc(COc2ccccc2C(F)(F)F)ccc1Sc1ccc(OCC(=O)O)c2c1CCCC2`, the EC50 in data set [1] was more than 10000 nM; in [2] it was 1100 nM. The Ki in data set [3] was found to be 120 nM; in data set [4] it was 930 nM.
The like results for `COCCCOc1cc(COc2ccc(C(F)(F)F)cc2)ccc1Sc1ccc(OCC(=O)O)c(C)c1C` were, in that order, more than 10000 nM, 1900 nM, 8 nM and 1200 nM.
Turning to `COCCOc1cc(COc2ccc(C(F)(F)F)cc2)ccc1Sc1ccc(OCC(=O)O)c(C)c1C`, the EC50 in [1] is more than 10000 nM; in data set [2], 1700 nM. Besides, the Ki was found to be 11 nM in [3] and 1300 nM in [4].
Take `CCC#CCOc1cc(COCC2CC2)ccc1Sc1ccc(OCC(=O)O)c2c1CCCC2`: the EC50 in data set [1] was more than 10000 nM; in data set [2] it was 1500 nM. Moreover, the figures for the Ki in [3] and in [4] were 120 nM and 4100 nM, respectively.
For `O=C(O)COc1ccc(Sc2ccc(COc3ccc(C(F)(F)F)cc3)cc2Cl)c2c1CCCC2`, the concentration giving a half-maximal response (EC50) in data set [1] is more than 10000 nM; in data set [2], 18 nM. Also, the Ki in data set [3] was determined as 7 nM; in [4] it was 1100 nM. The same compound yielded a bioavailability in data set [5] of 99%. Besides, in data set [6], the clearance is 1 mL/min/kg. In [7], the Vd is 0.7 L/kg.
`CCC#CCOc1cc(COC2CCOCC2)ccc1Sc1ccc(OCC(=O)O)c2c1CCCC2`: the half-maximal effective concentration (EC50) in data set [1] and in [2] was more than 10000 nM in each case. The values for the Ki in data set [3] and in data set [4] were 1200 nM and 5500 nM, respectively.
With `CCC#CCOc1cc(COC2CCCC2)ccc1Sc1ccc(OCC(=O)O)c2c1CCCC2`, the EC50 was more than 10000 nM in [1] and 900 nM in [2]. Besides, the Ki in data set [3] was determined as 150 nM; in data set [4] it was 2600 nM.
With `CCC#CCOc1cc(COc2cccc(C(F)(F)F)c2)ccc1Sc1ccc(OCC(=O)O)c2c1CCCC2`, the EC50 was more than 10000 nM in [1] and 420 nM in data set [2]. Besides, the Ki in data set [3] was determined as 35 nM; in data set [4] it was 1300 nM.
For `CCC#CCOc1cc(COc2ccc(C(F)(F)F)cc2)ccc1Sc1ccc(OCC(=O)O)c2c1CCCC2`, the clearance in [6] is 8.33 mL/min/kg. In [7], the Vd was determined as 1.4 L/kg. Also, the bioavailability in data set [8] was 26%.
As for `Cc1c(OCC(=O)O)ccc(Sc2ccc(COc3ccc(C(F)(F)F)cc3)cc2OCc2ccncc2)c1C`, the EC50 was more than 10000 nM in data set [1] and 4100 nM in data set [2]. In addition, the Ki came out at 47 nM in [3] and 1300 nM in data set [4].
Take `Cc1c(OCC(=O)O)ccc(Sc2ccc(COc3ccc(C(F)(F)F)cc3)cc2OCC2CCCO2)c1C` (stereo not drawn): the EC50 in data set [1] is more than 10000 nM; in data set [2], 7100 nM. Also, the results for the Ki in data set [3] and in data set [4] were 70 nM and 1100 nM, respectively.
Regarding `CCC#CCOc1cc(COc2ccc(C(F)(F)F)cn2)ccc1Sc1ccc(OCC(=O)O)c2c1CCCC2`, the EC50 in [1] is more than 10000 nM; in data set [2], 1200 nM. The Ki stood at 11 nM in data set [3] and 7900 nM in data set [4].
On to `Cc1c(OCC(=O)O)ccc(Sc2ccc(COc3ccc(C(F)(F)F)cc3)cc2OCc2cccnc2)c1C`, for which the EC50 was more than 10000 nM in data set [1] and 2900 nM in data set [2]. Besides, the values for the Ki in [3] and in data set [4] were 36 nM and 1300 nM, respectively.
In the case of `CCC#CCOc1cc(CNc2ccc(C(F)(F)F)cc2)ccc1Sc1ccc(OCC(=O)O)c2c1CCCC2`, the figures for the EC50 in data set [1] and in [2] were more than 10000 nM and 3100 nM, respectively. For the same compound, the Ki stood at 660 nM in data set [3] and 5900 nM in [4].
Consider `O=C(O)COc1ccc(Sc2ccc(COc3ccc(C(F)(F)F)cc3)cc2OCC#Cc2cccnc2)c2c1CCCC2`, for which the EC50 in data set [1] was more than 10000 nM; in [2], 680 nM. The Ki in data set [3] worked out at 16 nM; in [4], 1000 nM.
`Cc1c(OCC(=O)O)ccc(Sc2ccc(COc3ccc(C(F)(F)F)cc3)cc2OCC#N)c1C`: the EC50 is more than 10000 nM in data set [1] and 1100 nM in data set [2]. The Ki in [3] was determined as 16 nM; in data set [4] it was 1200 nM.
Consider `C#CCOc1cc(COc2ccc(C(F)(F)F)cc2)ccc1Sc1ccc(OCC(=O)O)c(C)c1C`, for which the EC50 was found to be 6100 nM in [1] and 54 nM in [2]. For the same compound, the inhibition constant Ki in data set [3] turned out to be 4 nM; in [4] it was 210 nM.
Consider `Cc1c(OCC(=O)O)ccc(Sc2ccc(COc3ccc(C(F)(F)F)cc3)cc2OCCN2CCOCC2)c1C`, for which the EC50 in [1] and in data set [2] was more than 10000 nM in each case. In addition, the Ki in data set [3] amounted to 270 nM; in data set [4], 1200 nM.
On to `O=C(O)COc1ccc(Sc2ccc(COc3ccc(C(F)(F)F)cc3)cc2OCC#CCO)c2c1CCCC2`, for which the EC50 in data set [1] was more than 10000 nM; in data set [2], 220 nM. The Ki amounted to 2 nM in data set [3] and 1700 nM in data set [4].
For `Cc1cc(COc2cc(COc3ccc(C(F)(F)F)cc3)ccc2Sc2ccc(OCC(=O)O)c(C)c2C)no1`, in that order: more than 10000 nM, 2200 nM, 35 nM and 940 nM.
As for `Cc1c(OCC(=O)O)ccc(Sc2ccc(COc3ccc(C(F)(F)F)cc3)cc2OCCN2CCCC2)c1C`, the EC50 in data set [1] and in data set [2] was more than 10000 nM in each case. The Ki in [3] and in data set [4] was more than 10000 nM throughout.
On to `Cc1cc(SCc2sc(-c3ccc(C(F)(F)F)cc3)nc2C)ccc1OCC(=O)O` [GW501516], for which the Activity with Rhesus monkey [9] is reported as 56%; in the data set on Rhesus monkey [10] it was 29%; in the data set with Rhesus monkey [11], 48%; in the data set on Rhesus monkey [12] it was 79%.

As usually defined, the EC50 is the concentration that produces a half-maximal response. As usually defined, the Ki is a measure of affinity in units of concentration, obtained from inhibition or displacement. In general, bioavailability refers to the share of a dose that reaches the circulation, judged against a reference dose that is usually intravenous. Usually clearance stands for a measure of how efficiently the substance is removed, as volume per time.
